Assay results from patent publication US10870647B2, “Imidazopyridine derivative, method for preparing same, and pharmaceutical composition containing same as active ingredient for preventing or treating cancer” (DAEGU-GYEONGBUK MEDICAL INNOVATION FOUNDATION, priority 2016, dated 2020).

Key:
Assay in all cases: Kinase selectivity, scanMAX Kinase assay panel (DiscoverX), % control at 1 uM
Assay type in all cases: binding
[1] = target: T1, scanMAX Kinase assay panel (Homo sapiens, UniProt P04626); settings: ERBB2; 1 uM; read-out: Percent Control (%)
T1 construct: purchased DiscoverX
T1 sequence (P04626 23-1255): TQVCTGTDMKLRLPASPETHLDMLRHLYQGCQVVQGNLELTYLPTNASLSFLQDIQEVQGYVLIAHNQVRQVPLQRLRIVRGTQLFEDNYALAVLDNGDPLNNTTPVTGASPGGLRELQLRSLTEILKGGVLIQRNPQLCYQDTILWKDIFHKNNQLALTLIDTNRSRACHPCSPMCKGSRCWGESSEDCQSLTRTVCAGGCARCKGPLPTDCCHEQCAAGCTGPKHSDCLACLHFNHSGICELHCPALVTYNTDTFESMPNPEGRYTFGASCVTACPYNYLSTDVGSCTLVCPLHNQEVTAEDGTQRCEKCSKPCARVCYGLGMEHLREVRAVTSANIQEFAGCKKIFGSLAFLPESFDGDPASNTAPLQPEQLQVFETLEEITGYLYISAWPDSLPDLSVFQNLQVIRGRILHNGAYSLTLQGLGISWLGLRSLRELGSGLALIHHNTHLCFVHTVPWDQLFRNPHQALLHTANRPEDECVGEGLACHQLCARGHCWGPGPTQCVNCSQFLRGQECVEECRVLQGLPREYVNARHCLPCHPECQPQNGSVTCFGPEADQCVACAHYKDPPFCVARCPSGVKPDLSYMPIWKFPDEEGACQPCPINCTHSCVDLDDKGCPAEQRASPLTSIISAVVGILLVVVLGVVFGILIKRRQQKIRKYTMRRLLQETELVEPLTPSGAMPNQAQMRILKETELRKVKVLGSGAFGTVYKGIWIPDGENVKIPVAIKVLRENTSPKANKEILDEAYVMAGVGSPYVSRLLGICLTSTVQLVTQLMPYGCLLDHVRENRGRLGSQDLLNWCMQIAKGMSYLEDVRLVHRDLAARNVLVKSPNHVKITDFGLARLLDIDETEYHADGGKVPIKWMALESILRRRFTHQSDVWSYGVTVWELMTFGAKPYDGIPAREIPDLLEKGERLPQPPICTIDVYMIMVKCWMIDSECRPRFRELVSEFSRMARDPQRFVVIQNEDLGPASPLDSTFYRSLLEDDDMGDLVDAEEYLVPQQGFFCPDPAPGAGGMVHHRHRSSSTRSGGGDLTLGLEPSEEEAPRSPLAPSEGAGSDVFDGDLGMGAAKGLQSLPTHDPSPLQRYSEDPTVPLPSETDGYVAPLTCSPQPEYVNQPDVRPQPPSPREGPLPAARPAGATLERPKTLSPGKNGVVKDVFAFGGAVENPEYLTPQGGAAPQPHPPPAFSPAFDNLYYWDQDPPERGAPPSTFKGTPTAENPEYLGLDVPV
Summary of the method: (§1)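 Compounds were tested at 1 uM in DMSO against each enzyme in the panel. Percent control was calculated as (compound − positive control)/(negative control − positive control) × 100, and a compound was scored active on a kinase when this value fell below 35.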

[2] = target: T2, scanMAX Kinase assay panel (Homo sapiens, UniProt Q16832); settings: DDR2; 1 uM; read-out: Percent Control (%)
T2 construct: purchased DiscoverX
T2 sequence (Q16832 22-855): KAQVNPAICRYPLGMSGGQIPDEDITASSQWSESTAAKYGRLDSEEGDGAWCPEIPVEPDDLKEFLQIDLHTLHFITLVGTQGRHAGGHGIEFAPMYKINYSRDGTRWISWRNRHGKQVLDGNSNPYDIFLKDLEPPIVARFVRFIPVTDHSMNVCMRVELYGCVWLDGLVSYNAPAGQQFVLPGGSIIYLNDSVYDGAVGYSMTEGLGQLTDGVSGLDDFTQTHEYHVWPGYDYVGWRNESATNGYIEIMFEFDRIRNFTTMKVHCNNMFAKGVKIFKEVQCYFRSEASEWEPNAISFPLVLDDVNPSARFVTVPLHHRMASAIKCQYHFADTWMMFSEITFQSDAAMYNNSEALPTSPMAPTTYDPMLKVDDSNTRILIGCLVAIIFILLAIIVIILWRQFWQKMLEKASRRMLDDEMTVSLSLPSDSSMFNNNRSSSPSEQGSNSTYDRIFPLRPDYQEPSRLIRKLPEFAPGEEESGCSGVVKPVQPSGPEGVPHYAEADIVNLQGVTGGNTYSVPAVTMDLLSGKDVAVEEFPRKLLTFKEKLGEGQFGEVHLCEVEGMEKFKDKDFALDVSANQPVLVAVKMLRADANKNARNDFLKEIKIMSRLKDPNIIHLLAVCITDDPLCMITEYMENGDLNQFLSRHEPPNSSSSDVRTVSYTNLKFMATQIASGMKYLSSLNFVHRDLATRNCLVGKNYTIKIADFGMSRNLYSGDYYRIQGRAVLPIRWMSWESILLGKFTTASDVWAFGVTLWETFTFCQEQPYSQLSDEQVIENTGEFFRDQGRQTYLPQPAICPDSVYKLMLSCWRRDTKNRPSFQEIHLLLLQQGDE
Summary of the method: as §1

[3] = target: T3, scanMAX Kinase assay panel (Homo sapiens, UniProt P07949, V804L); settings: RET (V804L); 1 uM; read-out: Percent Control (%)
T3 construct: purchased DiscoverX
Summary of the method: as §1

[4] = target: T4, scanMAX Kinase assay panel (Homo sapiens, UniProt P48730); settings: CSNK1D; 1 uM; read-out: Percent Control (%)
T4 construct: purchased DiscoverX
T4 sequence (P48730 whole entry): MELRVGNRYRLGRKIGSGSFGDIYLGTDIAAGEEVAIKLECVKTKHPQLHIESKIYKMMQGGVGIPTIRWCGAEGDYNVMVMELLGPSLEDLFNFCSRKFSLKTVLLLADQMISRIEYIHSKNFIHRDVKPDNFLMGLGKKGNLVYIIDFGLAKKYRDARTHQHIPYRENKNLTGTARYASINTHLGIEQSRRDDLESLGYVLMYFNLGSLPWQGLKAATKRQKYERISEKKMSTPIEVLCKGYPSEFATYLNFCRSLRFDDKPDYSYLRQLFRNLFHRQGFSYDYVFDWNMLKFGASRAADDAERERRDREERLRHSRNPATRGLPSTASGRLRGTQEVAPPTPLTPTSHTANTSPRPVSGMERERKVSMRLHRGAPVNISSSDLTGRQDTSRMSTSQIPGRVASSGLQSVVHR
Summary of the method: as §1

[5] = target: T5, scanMAX Kinase assay panel (Homo sapiens, UniProt Q9UKI8); settings: TLK1; 1 uM; read-out: Percent Control (%)
T5 construct: purchased DiscoverX
T5 sequence (Q9UKI8 1-766): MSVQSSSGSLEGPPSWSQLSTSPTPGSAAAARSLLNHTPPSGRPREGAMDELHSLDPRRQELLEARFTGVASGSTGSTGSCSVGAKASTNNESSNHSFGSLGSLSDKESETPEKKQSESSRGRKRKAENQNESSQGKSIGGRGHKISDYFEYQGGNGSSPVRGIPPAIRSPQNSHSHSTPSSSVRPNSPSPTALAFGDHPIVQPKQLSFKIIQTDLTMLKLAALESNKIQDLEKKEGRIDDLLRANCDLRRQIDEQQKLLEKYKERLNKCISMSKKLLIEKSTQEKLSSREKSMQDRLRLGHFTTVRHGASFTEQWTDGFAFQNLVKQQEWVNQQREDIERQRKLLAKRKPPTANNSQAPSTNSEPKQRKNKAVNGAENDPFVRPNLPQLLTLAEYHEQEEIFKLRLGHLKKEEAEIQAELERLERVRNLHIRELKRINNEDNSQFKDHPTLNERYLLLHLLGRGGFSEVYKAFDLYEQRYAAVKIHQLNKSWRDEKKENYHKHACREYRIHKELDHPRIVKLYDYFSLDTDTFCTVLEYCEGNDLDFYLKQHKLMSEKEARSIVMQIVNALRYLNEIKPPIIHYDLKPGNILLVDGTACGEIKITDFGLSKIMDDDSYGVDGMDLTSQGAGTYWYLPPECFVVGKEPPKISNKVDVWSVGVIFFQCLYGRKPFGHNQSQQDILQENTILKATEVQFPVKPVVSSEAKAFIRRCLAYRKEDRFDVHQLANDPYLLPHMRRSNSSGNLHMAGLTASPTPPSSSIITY
Summary of the method: as §1

[6] = target: T6, scanMAX Kinase assay panel (Homo sapiens, UniProt P42336, Q546K); settings: PIK3CA (Q546K); 1 uM; read-out: Percent Control (%)
T6 construct: purchased DiscoverX
T6 sequence (P42336 whole entry Q546K): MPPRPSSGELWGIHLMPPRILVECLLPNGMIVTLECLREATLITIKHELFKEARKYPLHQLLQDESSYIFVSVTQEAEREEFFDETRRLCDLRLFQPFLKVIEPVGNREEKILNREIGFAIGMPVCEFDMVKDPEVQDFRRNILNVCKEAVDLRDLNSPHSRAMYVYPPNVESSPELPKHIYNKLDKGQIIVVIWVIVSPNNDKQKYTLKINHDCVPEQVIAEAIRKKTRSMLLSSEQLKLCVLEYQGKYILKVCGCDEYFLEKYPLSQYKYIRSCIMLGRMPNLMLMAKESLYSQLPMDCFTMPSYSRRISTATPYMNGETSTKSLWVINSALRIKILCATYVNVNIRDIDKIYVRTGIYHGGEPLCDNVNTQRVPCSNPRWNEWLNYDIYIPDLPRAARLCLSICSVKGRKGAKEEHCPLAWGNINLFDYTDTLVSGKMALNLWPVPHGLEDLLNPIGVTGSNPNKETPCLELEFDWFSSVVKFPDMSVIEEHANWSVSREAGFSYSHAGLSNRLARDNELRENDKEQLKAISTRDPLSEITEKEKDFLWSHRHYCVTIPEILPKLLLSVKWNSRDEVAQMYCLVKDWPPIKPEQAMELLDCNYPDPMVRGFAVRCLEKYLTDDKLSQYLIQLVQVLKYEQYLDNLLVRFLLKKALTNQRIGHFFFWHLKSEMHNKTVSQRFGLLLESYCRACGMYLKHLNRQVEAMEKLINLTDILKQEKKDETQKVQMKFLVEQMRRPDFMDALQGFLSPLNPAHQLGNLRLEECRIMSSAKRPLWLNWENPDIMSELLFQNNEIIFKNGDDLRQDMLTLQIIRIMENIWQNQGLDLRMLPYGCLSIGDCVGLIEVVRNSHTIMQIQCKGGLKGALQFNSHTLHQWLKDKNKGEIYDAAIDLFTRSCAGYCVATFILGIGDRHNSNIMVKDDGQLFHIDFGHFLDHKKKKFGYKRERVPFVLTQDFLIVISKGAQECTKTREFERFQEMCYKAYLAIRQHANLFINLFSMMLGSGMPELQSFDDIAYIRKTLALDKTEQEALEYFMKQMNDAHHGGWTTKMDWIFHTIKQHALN
Summary of the method: as §1

[7] = target: T7, scanMAX Kinase assay panel (Homo sapiens, UniProt Q9BUB5); settings: MKNK1; 1 uM; read-out: Percent Control (%)
T7 construct: purchased DiscoverX
T7 sequence (Q9BUB5 whole entry): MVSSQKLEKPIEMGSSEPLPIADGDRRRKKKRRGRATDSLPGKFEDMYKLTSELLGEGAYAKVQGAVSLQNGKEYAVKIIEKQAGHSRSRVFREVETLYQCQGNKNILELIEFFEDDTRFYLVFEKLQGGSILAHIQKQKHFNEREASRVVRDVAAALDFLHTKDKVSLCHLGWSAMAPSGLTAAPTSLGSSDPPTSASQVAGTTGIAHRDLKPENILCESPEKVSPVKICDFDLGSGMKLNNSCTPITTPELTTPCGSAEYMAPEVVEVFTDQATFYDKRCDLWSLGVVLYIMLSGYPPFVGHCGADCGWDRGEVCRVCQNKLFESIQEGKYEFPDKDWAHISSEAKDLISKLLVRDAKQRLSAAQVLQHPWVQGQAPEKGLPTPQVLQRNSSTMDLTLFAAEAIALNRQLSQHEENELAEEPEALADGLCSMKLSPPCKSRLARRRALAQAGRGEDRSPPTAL
Summary of the method: as §1

[8] = target: T8, scanMAX Kinase assay panel (Homo sapiens, UniProt O75460); settings: ERN1; 1 uM; read-out: Percent Control (%)
T8 construct: purchased DiscoverX
T8 sequence (O75460 19-977): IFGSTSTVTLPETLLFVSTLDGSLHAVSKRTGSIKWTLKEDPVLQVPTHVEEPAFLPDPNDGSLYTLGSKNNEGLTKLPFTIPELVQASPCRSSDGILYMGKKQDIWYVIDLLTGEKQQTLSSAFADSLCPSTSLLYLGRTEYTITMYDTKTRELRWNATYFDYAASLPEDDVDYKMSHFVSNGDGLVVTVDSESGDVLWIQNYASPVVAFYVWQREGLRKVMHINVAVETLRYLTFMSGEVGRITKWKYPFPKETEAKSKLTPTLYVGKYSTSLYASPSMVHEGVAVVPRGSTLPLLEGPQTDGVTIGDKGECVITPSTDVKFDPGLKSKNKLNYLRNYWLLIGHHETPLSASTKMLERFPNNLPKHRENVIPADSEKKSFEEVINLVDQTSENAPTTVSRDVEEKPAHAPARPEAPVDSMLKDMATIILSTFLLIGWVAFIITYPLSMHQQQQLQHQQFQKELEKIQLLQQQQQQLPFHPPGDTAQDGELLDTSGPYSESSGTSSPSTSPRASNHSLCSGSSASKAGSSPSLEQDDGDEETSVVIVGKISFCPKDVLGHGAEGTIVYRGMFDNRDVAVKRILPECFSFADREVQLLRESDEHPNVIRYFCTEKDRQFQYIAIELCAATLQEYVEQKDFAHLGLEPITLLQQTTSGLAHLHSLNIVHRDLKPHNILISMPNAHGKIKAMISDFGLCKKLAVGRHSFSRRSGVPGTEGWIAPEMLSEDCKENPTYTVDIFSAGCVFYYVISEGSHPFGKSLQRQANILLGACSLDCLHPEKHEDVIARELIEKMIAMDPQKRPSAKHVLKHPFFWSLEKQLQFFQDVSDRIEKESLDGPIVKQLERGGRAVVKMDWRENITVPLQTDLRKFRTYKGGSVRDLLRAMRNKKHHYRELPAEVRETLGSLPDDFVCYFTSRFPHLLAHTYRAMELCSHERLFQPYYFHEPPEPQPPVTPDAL
Summary of the method: as §1

[9] = target: T9, scanMAX Kinase assay panel (Homo sapiens, UniProt Q6P2M8); settings: CAMK1B; 1 uM; read-out: Percent Control (%)
T9 construct: purchased DiscoverX
T9 sequence (Q6P2M8 whole entry): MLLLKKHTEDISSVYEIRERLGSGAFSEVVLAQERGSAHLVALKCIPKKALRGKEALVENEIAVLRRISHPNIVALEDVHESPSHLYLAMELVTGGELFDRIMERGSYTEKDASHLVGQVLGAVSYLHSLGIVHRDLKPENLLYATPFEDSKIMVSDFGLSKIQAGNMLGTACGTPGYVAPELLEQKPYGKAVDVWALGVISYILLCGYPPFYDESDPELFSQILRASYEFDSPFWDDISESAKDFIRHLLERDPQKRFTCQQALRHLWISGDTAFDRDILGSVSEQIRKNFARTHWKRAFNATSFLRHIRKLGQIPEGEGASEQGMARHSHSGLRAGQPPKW
Summary of the method: as §1

With `Cc1ccc(NC(=O)C2(C(=O)Nc3ccc(F)cc3)CC2)cc1C#Cc1cnc2c(Nc3cnn(C(C)C)c3)cccn12` [Example 78] the remaining binding at 1 µM [1] was 81%, the remaining binding at 1 µM [2] was 3% and the remaining binding at 1 µM [3] was 100%. For the same compound, the remaining binding at 1 µM [4] was 92%, the remaining binding at 1 µM [5] was 96% and the remaining binding at 1 µM [6] was 89%. For the same compound, the remaining binding at 1 µM [7] was 100%, the remaining binding at 1 µM [8] was 97% and the remaining binding at 1 µM [9] was 100%.
In the case of `Cc1cn(-c2cc(NC(=O)c3ccc(C)c(C#Cc4cnc5c(Nc6cnn(C)c6)cccn45)c3)cc(C(F)(F)F)c2)cn1` [Example 12, 4-methyl-N-(3-(4-methyl-1H-imidazol-1-yl)-5-(trifluoromethyl)phenyl)-3-((8-((1-methyl-1H-pyrazol-4-yl)amino)imidazo[1,2-a]pyridin-3-yl)ethynyl)benzamide], the remaining binding at 1 µM [1] is reported as 68%, the remaining binding at 1 µM [2] is reported as 7% and the remaining binding at 1 µM [3] is reported as 2%. For the same compound, the remaining binding at 1 µM [4] was 79%, the remaining binding at 1 µM [5] was 75% and the remaining binding at 1 µM [6] was 100%. It also gave a remaining binding at 1 µM [7] of 100%, a remaining binding at 1 µM [8] of 100% and a remaining binding at 1 µM [9] of 100%.
For `Cc1ccc(C(=O)Nc2ccc(CN3CCN(C)CC3)c(C(F)(F)F)c2)cc1C#Cc1cnc2c(Nc3cnn(C)c3)cccn12` [Example 1, 4-methyl-3-((8-((1-methyl-1H-pyrazol-4-yl)amino)imidazo[1,2-a]pyridin-3-yl)ethynyl)-N-(4-((4-methylpiperazin-1-yl)methyl)-3-(trifluoromethyl)phenyl)benzamide], the remaining binding at 1 µM [1] was 1%, the remaining binding at 1 µM [2] was 0% and the remaining binding at 1 µM [3] was 0%. For the same compound, the remaining binding at 1 µM [4] was 91%, the remaining binding at 1 µM [5] was 93% and the remaining binding at 1 µM [6] was 83%. For the same compound, the remaining binding at 1 µM [7] was 47%, the remaining binding at 1 µM [8] was 62% and the remaining binding at 1 µM [9] was 62%.
